Experimental data as given in patent US20110201620A1, “2-(3-AMINOARYL) AMINO-4-ARYL-THIAZOLES AND THEIR USE AS C-KIT INHIBITORS” (AB SCIENCE, priority 2002, published 2011).
Values joined by “and” are separate entries in the source; they are usually repeats but may differ in a detail not shown here. Equal values may be shown once.

Experiments:
[1] = system: locally advanced or metastatic, c-Kit positive GIST; assay: Phase 2 clinical trial in advanced GIST, efficacy (RECIST, FDG-PET, PFS, OS); format: in vivo, human
Source text: Methods; Patients: Patients enrolled in this study were aged over 18 years with inoperable, non-pretreated, histologically proven locally advanced or metastatic, c-Kit positive GIST. […] Exclusion criteria included: inadequate organ function defined via blood tests, severe liver or cardiac failure, and severe neurological or psychiatric disorders. Patients receiving a concomitant treatment within 4 weeks before inclusion, and pregnant or lactating women were also excluded. […] Time-to-event analyses were calculated from the date of first masitinib intake to the date of event (documented progression or death). Patients who had not progressed at the date of last tumor assessment were censored at that date for PFS. Patients alive at the time of the analysis were censored at the date of last contact for OS. Methods; Statistical analyses: Simon […] two-stage design was used for this prospective, multicenter, single-group, phase II trial. Fourteen patients were initially enrolled, with recruitment of an additional ten patients being dependent on the occurrence of at least one objective RECIST response. This population was further extended to a total of 30 patients to ensure a sufficient evaluable population for all end-points; the type I(α) error was 5% (two-sided) for all analyses. Quantitative variables were described by the number of filled and missing data, mean, standard deviation, median, minimum and maximum Qualitative variables were described by the number of missing data and, for each modality, frequency and percentage (referring to filled data). Time-to-event data were described using Kaplan-Meier (KM) estimates. The median was provided with its 95% confidence interval (95% CI). PFS rates were given every 6 months with KM estimates. All data analyses and reporting procedures used SAS v9.1 in a Windows XP operating system environment.

[2] = Solubility; format: physicochemical
Experimental: For detailed procedure refer to patent WO/2008/098949. AB1010 is also manufactured by AB Science, S.A. (France), or by Prestwick Chemical, Inc. (France). The chemical structure was confirmed by nuclear magnetic resonance, mass spectrometry, ultraviolet and infrared spectrometry, and elemental analysis. […] The compound, a white powder, was prepared according to the art to provide tablets. Tablet containing masitinib was used for each experiment.

[3] = system: Human Kit exon 9; conditions: read-out: Cell proliferation assay (IC50) Human Kit exon 9; cited from earlier work
[4] = Kaplan-Meier estimate, listed as masitinib

In the case of Cc1ccc(NC(=O)c2ccc(CN3CCN(C)CC3)cc2)cc1Nc1nc(-c2cccnc2)cs1 [Compound 066, 4-(4-methyl-piperazin-1-ylmethyl)-N-[4-methyl-3-(4-pyridin-3-yl-thiazol-2-ylamino)-phenyl]-benzamide], the “patients who never benefited from treatment (early resistance)” value ([1]; 1/30 patient) is reported as 3.3%, the “OS rates (%) [95% CI] 12 months” value [1, 4] is reported as 96.7% and the “OS rates (%) [95% CI] 24 months” value [1, 4] is reported as 89.9%. The “OS rates (%) [95% CI] 36 months” value [1, 4] was 89.9%, the “PFS rate (%) [95% CI] 6 months” value [1, 4] was 88.9% and the “PFS rate (%) [95% CI] 12 months” value [1, 4] was 76.8%. For the same compound, the “PFS rate (%) [95% CI] 24 months” value [1, 4] was 59.7% and 60%, the “PFS rate (%) [95% CI] 36 months” value [1, 4] was 55.4% and 55% and the “PFS Median” value ([1]; Kaplan-Meier, ITT N = 30) was 41.3 months. The “Metabolic response CMR, At 1 month” value ([1]; N = 13, FDG-PET, complete metabolic response) was 0 (0.0%) n (%), the “Metabolic response CMR + PMR, At 1 month” value ([1]; N = 13, FDG-PET, metabolic response rate) was 9 (69.2%) n (%) and the “Metabolic response PMR, At 1 month” value ([1]; N = 13, FDG-PET, partial metabolic response, listed as masitinib) was 9 (69.2%) n (%). For the same compound, the “Metabolic response SMD, At 1 month” value ([1]; N = 13, FDG-PET, stable metabolic disease, listed as masitinib) was 4 (30.8%) n (%), the “Metabolic response CMR, At 2 months” value ([1]; N = 14, FDG-PET, complete metabolic response, listed as masitinib) was 3 (21.4%) n (%) and the “Metabolic response CMR + PMR, At 2 months” value ([1]; N = 14, FDG-PET, metabolic response rate, listed as masitinib) was 12 (85.7%) n (%). For the same compound, the “Metabolic response PMR, At 2 months” value ([1]; N = 14, FDG-PET, partial metabolic response, listed as masitinib) was 9 (64.2%) n (%), the “Metabolic response SMD, At 2 months” value ([1]; N = 14, FDG-PET, stable metabolic disease, listed as masitinib) was 2 (14.3%) n (%) and the “Response (RECIST) CR, 2 months” value ([1]; N = 30, complete response) was 0 (0.0%) n (%). For the same compound, the “Response (RECIST) CR, Best Response” value ([1]; N = 30, complete response, listed as masitinib) was 1 (3.3%) n (%), the “Response (RECIST) CR + PR + SD, 2 months” value ([1]; N = 30, disease control rate) was 29 (96.7%) n (%) and the “Response (RECIST) CR + PR + SD, Best Response” value ([1]; N = 30, disease control rate, listed as masitinib) was 29 (96.7%) n (%). The “Response (RECIST) CR + PR, 2 months” value ([1]; N = 30, overall response rate) was 6 (20.0%) n (%), the “Response (RECIST) CR + PR, Best Response” value ([1]; N = 30, overall response rate, listed as masitinib) was 16 (53.3%) n (%) and the “Response (RECIST) PR, Best Response” value ([1]; N = 30, partial response, listed as masitinib) was 15 (50.0%) n (%). For the same compound, the “Response (RECIST) PD, Best Response” value ([1]; N = 30, progressive disease, listed as masitinib) was 1 (3.3%) n (%), the “Response (RECIST) SD, Best Response” value ([1]; N = 30, stable disease, listed as masitinib) was 13 (43.3%) n (%) and the “tumour response according to changes in tumour size (RECIST), evaluable patients” value ([1]; after 2 months of masitinib) was 20%. For the same compound, the “tumour response according to metabolic response using FDG-PET” value ([1]; after 2 months of masitinib) was 86%, the “tumour response in patients assessed with DCE-US” value ([1]; after 2 months of masitinib) was 75% and the “patients with confirmed PR after 2 months, Simon first stage” value ([1]; first 14 patients) was 4/14. For the same compound, the “Median time to first objective response” value ([1]; range: 0.8-23.8 months) was 5.6 months, the “solubility in 0.1 M HCl” value ([2]; 0.1 M HCl) was “freely soluble” and the “solubility in 0.1 M NaOH” value ([2]; 0.1 M NaOH) was “practically insoluble”. The solubility in dimethylsulfoxide ([2]; dimethylsulfoxide) was “freely soluble”, the solubility in ethanol ([2]; ethanol) was “slightly soluble” and the solubility in n-hexane ([2]; n-hexane) was “practically insoluble”. The “solubility in propylene glycol” value ([2]; propylene glycol) was “slightly soluble”, the solubility in water ([2]; water) was “soluble” and the IC50 [3] was 100 nM.
